Data taken from US20230081426A1, “COMPOUNDS AND METHODS FOR KRAS MODULATION AND INDICATIONS THEREFOR” (Plexxikon Inc., priority 2020, published 2023).

Experiments:
[1] = target: T1, G12V-mutant human KRAS (amino acid residues 1-188) (Homo sapiens, UniProt P01116, G12V); assay: KRAS Binding Competition Assay (AlphaScreen; biotinylated KRpep-2d analogue), G12V; conditions: geometric mean, read-out: KRAS GMean IC50 (uM) MUTATION: G12V
T1 construct: G12V-mutant human KRAS (amino acid residues 1-188) with FLAG tag was purified from E. coli; made in house; host or cells: E. coli

[2] = target: T2, G12C-mutant human KRAS (amino acid residues 1-188) (Homo sapiens, UniProt P01116, G12C); assay: KRAS Binding Disruption Assay (AlphaScreen; biotinylated KRpep-2d analogue or RAF1-RBD), G12C; conditions: geometric mean, read-out: KRAS GMean IC50 (uM) MUTATION: G12C
T2 construct: G12D or G12C-mutant human KRAS (amino acid residues 1-188) with FLAG tag; made in house; host or cells: E. coli
Procedure, shortened: (§1)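 Compounds are titrated against 5-20 nM mutant KRAS and 5-20 nM of either a biotinylated KRpep-2d analogue or RAF1-RBD, incubated 1 h at 25° C. Disruption is detected as reduced Alpha signal after 1 h with donor and acceptor beads at 10 μg/mL.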

[3] = target: T3, G12D-mutant human KRAS (amino acid residues 1-188) (Homo sapiens, UniProt P01116, G12D); assay: KRAS Binding Disruption Assay (AlphaScreen; biotinylated KRpep-2d analogue or RAF1-RBD), G12D; conditions: KRAS G12D; geometric mean; read-out: KRAS GMean IC50 (uM) MUTATION: G12D
T3 construct: G12D or G12C-mutant human KRAS (amino acid residues 1-188) with FLAG tag; made in house; host or cells: E. coli
Procedure, shortened: as §1

Measured: IC50

Cn1cc(NC(=O)N2[C@@H]3CC[C@H]2CN(c2nc(OCC45CCCN4CCC5)nc4cc(-c5cc(O)cc6ccccc56)ccc24)C3)cn1 [P-0128, (1R,5S)-3-(7-(3-hydroxynaphthalen-1-yl)-2-((tetrahydro-1H-pyrrolizin-7a(5H)-yl)methoxy)quinazolin-4-yl)-N-(1-methyl-1H-pyrazol-4-yl)-3,8-diazabicyclo[3.2.1]octane-8-carboxamide]
0.0001 to 10 µM: all assays above

O=C(NC1CCOC1)N1[C@@H]2CC[C@H]1CN(c1nc(OCC34CCCN3CCC4)nc3cc(-c4cc(O)cc5ccccc45)ccc13)C2 (stereo partly drawn) [P-0129, (1R,5S)-3-(7-(3-hydroxynaphthalen-1-yl)-2-((tetrahydro-1H-pyrrolizin-7a(5H)-yl)methoxy)quinazolin-4-yl)-N-(tetrahydrofuran-3-yl)-3,8-diazabicyclo[3.2.1]octane-8-carboxamide]
0.0001 to 10 µM: all assays above

O=C(N[C@H]1CC[C@@H](O)C1)N1[C@@H]2CC[C@H]1CN(c1nc(OCC34CCCN3CCC4)nc3cc(-c4cc(O)cc5ccccc45)ccc13)C2 [P-0130, (1R,5S)-N-((1S,3R)-3-hydroxycyclopentyl)-3-(7-(3-hydroxynaphthalen-1-yl)-2-((tetrahydro-1H-pyrrolizin-7a(5H)-yl)methoxy)quinazolin-4-yl)-3,8-diazabicyclo[3.2.1]octane-8-carboxamide]
0.0001 to 10 µM: all assays above

O=C(N[C@H]1CC[C@H](O)C1)N1[C@@H]2CC[C@H]1CN(c1nc(OCC34CCCN3CCC4)nc3cc(-c4cc(O)cc5ccccc45)ccc13)C2 [P-0131, (1R,5S)-N-((1S,3S)-3-hydroxycyclopentyl)-3-(7-(3-hydroxynaphthalen-1-yl)-2-((tetrahydro-1H-pyrrolizin-7a(5H)-yl)methoxy)quinazolin-4-yl)-3,8-diazabicyclo[3.2.1]octane-8-carboxamide]
0.0001 to 10 µM: all assays above

CN1CC[C@H](NC(=O)N2[C@@H]3CC[C@H]2CN(c2nc(OCC45CCCN4CCC5)nc4cc(-c5cc(O)cc6ccccc56)ccc24)C3)C1 [P-0132, (1R,5S)-3-(7-(3-hydroxynaphthalen-1-yl)-2-((tetrahydro-1H-pyrrolizin-7a(5H)-yl)methoxy)quinazolin-4-yl)-N-((S)-1-methylpyrrolidin-3-yl)-3,8-diazabicyclo[3.2.1]octane-8-carboxamide]
0.0001 to 10 µM: all assays above

CN1CC[C@@H](NC(=O)N2[C@@H]3CC[C@H]2CN(c2nc(OCC45CCCN4CCC5)nc4cc(-c5cc(O)cc6ccccc56)ccc24)C3)C1 [P-0133, (1R,5S)-3-(7-(3-hydroxynaphthalen-1-yl)-2-((tetrahydro-1H-pyrrolizin-7a(5H)-yl)methoxy)quinazolin-4-yl)-N-((R)-1-methylpyrrolidin-3-yl)-3,8-diazabicyclo[3.2.1]octane-8-carboxamide]
0.0001 to 10 µM: all assays above

O=C(NC1CCNCC1)N1[C@@H]2CC[C@H]1CN(c1nc(OCC34CCCN3CCC4)nc3cc(-c4cc(O)cc5ccccc45)ccc13)C2 [P-0134, (1R,5S)-3-(7-(3-hydroxynaphthalen-1-yl)-2-((tetrahydro-1H-pyrrolizin-7a(5H)-yl)methoxy)quinazolin-4-yl)-N-(piperidin-4-yl)-3,8-diazabicyclo[3.2.1]octane-8-carboxamide]
0.0001 to 10 µM: all assays above

O=C1NCCC1NC(=O)N1[C@@H]2CC[C@H]1CN(c1nc(OCC34CCCN3CCC4)nc3cc(-c4cc(O)cc5ccccc45)ccc13)C2 (stereo partly drawn) [P-0135, (1R,5S)-3-(7-(3-hydroxynaphthalen-1-yl)-2-((tetrahydro-1H-pyrrolizin-7a(5H)-yl)methoxy)quinazolin-4-yl)-N-(2-oxopyrrolidin-3-yl)-3,8-diazabicyclo[3.2.1]octane-8-carboxamide]
0.0001 to 10 µM: all assays above

Oc1cc(-c2ccc3c(N4C[C@H]5CC[C@@H](C4)N5)nc(OCC45CCCN4CCC5)nc3c2F)c2c(Cl)cccc2c1 [P-0136, 4-(4-((1R,5S)-3,8-diazabicyclo[3.2.1]octan-3-yl)-8-fluoro-2-((tetrahydro-1H-pyrrolizin-7a(5H)-yl)methoxy)quinazolin-7-yl)-5-chloronaphthalen-2-ol]
0.0001 to 10 µM: all assays above

Oc1cc(-c2c(F)cc3c(N4C[C@H]5CC[C@@H](C4)N5)nc(OCC45CCCN4CCC5)nc3c2F)c2c(Cl)cccc2c1 [P-0137, 4-(4-((1R,5S)-3,8-diazabicyclo[3.2.1]octan-3-yl)-6,8-difluoro-2-((tetrahydro-1H-pyrrolizin-7a(5H)-yl)methoxy)quinazolin-7-yl)-5-chloronaphthalen-2-ol]
0.0001 to 10 µM: all assays above

CN1CC[C@@H](NC(=O)N2[C@@H]3CC[C@H]2CN(c2nc(OCC45CCCN4CCC5)nc4c(F)c(-c5cc(O)cc6ccccc56)ccc24)C3)C1 [P-0186, (1R,5S)-3-(8-fluoro-7-(3-hydroxynaphthalen-1-yl)-2-((tetrahydro-1H-pyrrolizin-7a(5H)-yl)methoxy)quinazolin-4-yl)-N-((R)-1-methylpyrrolidin-3-yl)-3,8-diazabicyclo[3.2.1]octane-8-carboxamide]
0.0001 to 10 µM: all assays above

CN1CCC[C@H]1COc1nc(N2CC3COCC(C2)N3)c2ccc(-c3cc(O)cc4ccccc34)c(F)c2n1 [P-0249, 4-(4-(3-oxa-7,9-diazabicyclo[3.3.1]nonan-7-yl)-8-fluoro-2-(((S)-1-methylpyrrolidin-2-yl)methoxy)quinazolin-7-yl)naphthalen-2-ol]
0.0001 to 10 µM: all assays above

CN1CCC[C@H]1COc1nc(N2C[C@H]3CC[C@@H](C2)N3C(=O)CC2SC(=O)NC2=O)c2ccc(-c3cc(O)cc4ccccc34)c(F)c2n1 (stereo partly drawn) [P-0279, 5-(2-((1R,5S)-3-(8-fluoro-7-(3-hydroxynaphthalen-1-yl)-2-(((S)-1-methylpyrrolidin-2-yl)methoxy)quinazolin-4-yl)-3,8-diazabicyclo[3.2.1]octan-8-yl)-2-oxoethyl)thiazolidine-2,4-dione]
0.0001 to 10 µM: all assays above

O=C1NC(=O)C(CC(=O)N2[C@@H]3CC[C@H]2CN(c2nc(OCC45CCCN4CCC5)nc4c(F)c(-c5cc(O)cc6ccccc56)ccc24)C3)S1 (stereo partly drawn) [P-0299, 5-(2-((1R,5S)-3-(8-fluoro-7-(3-hydroxynaphthalen-1-yl)-2-((tetrahydro-1H-pyrrolizin-7a(5H)-yl)methoxy)quinazolin-4-yl)-3,8-diazabicyclo[3.2.1]octan-8-yl)-2-oxoethyl)thiazolidine-2,4-dione]
0.0001 to 10 µM: all assays above

CN1CCC[C@H]1COc1nc(N2CC3CCC2CN3C(=O)CC2SC(=O)NC2=O)c2ccc(-c3cc(O)cc4ccccc34)c(F)c2n1 (stereo partly drawn) [P-0328, 5-(2-(5-(8-fluoro-7-(3-hydroxynaphthalen-1-yl)-2-(((S)-1-methylpyrrolidin-2-yl)methoxy)quinazolin-4-yl)-2,5-diazabicyclo[2.2.2]octan-2-yl)-2-oxoethyl)thiazolidine-2,4-dione]
0.0001 to 10 µM: all assays above

O=C(CCCn1ccnc1)N1[C@@H]2CC[C@H]1CN(c1nc(OCC34CCCN3CCC4)nc3c(F)c(-c4cc(O)cc5ccccc45)ccc13)C2 [P-0351, 1-((1R,5S)-3-(8-fluoro-7-(3-hydroxynaphthalen-1-yl)-2-((tetrahydro-1H-pyrrolizin-7a(5H)-yl)methoxy)quinazolin-4-yl)-3,8-diazabicyclo[3.2.1]octan-8-yl)-4-(1H-imidazol-1-yl)butan-1-one]
0.0001 to 10 µM: all assays above

NS(=O)(=O)CC(=O)N1[C@@H]2CC[C@H]1CN(c1nc(OCC34CCCN3CCC4)nc3c(F)c(-c4cc(O)cc5ccccc45)ccc13)C2 [P-0352, 2-((1R,5S)-3-(8-fluoro-7-(3-hydroxynaphthalen-1-yl)-2-((tetrahydro-1H-pyrrolizin-7a(5H)-yl)methoxy)quinazolin-4-yl)-3,8-diazabicyclo[3.2.1]octan-8-yl)-2-oxoethane-1-sulfonamide]
0.0001 to 10 µM: all assays above

N#CCC(=O)N1[C@@H]2CC[C@H]1CN(c1nc(OCC34CCCN3CCC4)nc3c(F)c(-c4cc(O)cc5ccccc45)ccc13)C2 [P-0354, 3-((1R,5S)-3-(8-fluoro-7-(3-hydroxynaphthalen-1-yl)-2-((tetrahydro-1H-pyrrolizin-7a(5H)-yl)methoxy)quinazolin-4-yl)-3,8-diazabicyclo[3.2.1]octan-8-yl)-3-oxopropanenitrile]
0.0001 to 10 µM: all assays above
